Reference: ChEMBL document CHEMBL1151225, “New neolignans that inhibit DNA polymerase beta lyase” (J Nat Prod, 2004)
pIC50: −log10 of the molar value.

Each compound was assayed against DNA polymerase beta (Homo sapiens, UniProt P06746) (assay: Inhibition of DNA polymerase beta lyase activity).

Going from C=CC[C@@]12C=C(O)C(=O)[C@](O)([C@H](c3ccc4c(c3)OCO4)[C@H]1C)[C@@H]2O to C=CC[C@@]12C=C(OC)C(=O)[C@](O)([C@H](c3ccc4c(c3)OCO4)[C@H]1C)[C@@H]2O, the pIC50 rises from less than 4.30 to 4.82.

Compared with COc1c(/C=C/CO)cc2c(c1OC)OCO2, COc1cc2c(c(OC)c1/C=C/CO)OCO2 is higher in pIC50: less than 4.30 for the first, 4.36 for the second. The second is the more potent here.

First: C=CC[C@@]12C=C(O)C(=O)[C@](OC)([C@H](c3ccc4c(c3)OCO4)[C@H]1C)[C@@H]2O
Second: C=CC[C@@]12C=C(OC)C(=O)[C@](OC)([C@H](c3ccc4c(c3)OCO4)[C@H]1C)[C@@H]2O
The pIC50 of the first is higher: 4.67 for the first, less than 4.30 for the second.

First: C=CCc1c(OC)cc(OC)c2c1OCO2
Second: C=CCc1c(OC)cc2c(c1OC)OCO2
The pIC50 of the first is 0.26 log units higher: 4.73 for the first, 4.47 for the second. The first is the more potent here.

Going from C=CC[C@]12C[C@@H](OC)C(=O)C(OC)=C1O[C@H](c1ccc3c(c1)OCO3)[C@H]2C to C=CC[C@@]12C[C@H](OC)[C@@H](O)[C@@](OC)([C@@H]1O)[C@@H](c1ccc3c(c1)OCO3)[C@@H]2C [CANELLIN A], the pIC50 falls from 4.91 to 4.58 (0.33 log units). The first is the more potent here.

Compared with C=CC[C@@]12CC(=O)[C@@H](O)[C@@](OC)([C@@H]1O)[C@@H](c1ccc3c(c1)OCO3)[C@@H]2C [CANELLIN C], C=CCc1cc2c(c(OC)c1OC)OCO2 [DILLAPIOLE] is lower in pIC50: 4.49 for the first, less than 4.30 for the second.
